# Assays:
# [1] = target: T1, fibrinogen receptor, glycoprotein IIb/IIIa (Homo sapiens, UniProt P05106+P08514); assay: inhibition of the binding of fibrinogen to the immobilized fibrinogen receptor, glycoprotein IIb/IIIa (ELISA); conditions: concentration required to inhibit the binding of fibrinogen to the immobilized receptor by 50%
# T1 construct: The glycoprotein IIb/IIIa is obtained from Triton X-100 extracts of human blood platelets; from tissue; host or cells: human blood platelets (Triton X-100 extract)
# Method: The glycoprotein IIb/IIIa is obtained from Triton X-100 extracts of human blood platelets and purified by lectin affinity chromatography (Analytical Biochemistry 151, 1985, 169-177) and chromatography on an Arg-Gly-Asp-Ser affinity column (Science 231, 1986, 1559-62). The thus-obtained receptor protein is bonded to microtiter plates. The specific binding of fibrinogen to the immobilized receptor is determined with the aid of an ELISA system ("enzyme-linked immunosorbent assay"). The IC50 values hereinafter correspond to that concentration of the test substance which is required to inhibit the binding of fibrinogen to the immobilized receptor by 50%: […]
# in vivo = conditions: iv, i.v. in the mouse
# Description: These compounds have low toxicity.
# T1 sequence (P08514 32-887 limits assumed): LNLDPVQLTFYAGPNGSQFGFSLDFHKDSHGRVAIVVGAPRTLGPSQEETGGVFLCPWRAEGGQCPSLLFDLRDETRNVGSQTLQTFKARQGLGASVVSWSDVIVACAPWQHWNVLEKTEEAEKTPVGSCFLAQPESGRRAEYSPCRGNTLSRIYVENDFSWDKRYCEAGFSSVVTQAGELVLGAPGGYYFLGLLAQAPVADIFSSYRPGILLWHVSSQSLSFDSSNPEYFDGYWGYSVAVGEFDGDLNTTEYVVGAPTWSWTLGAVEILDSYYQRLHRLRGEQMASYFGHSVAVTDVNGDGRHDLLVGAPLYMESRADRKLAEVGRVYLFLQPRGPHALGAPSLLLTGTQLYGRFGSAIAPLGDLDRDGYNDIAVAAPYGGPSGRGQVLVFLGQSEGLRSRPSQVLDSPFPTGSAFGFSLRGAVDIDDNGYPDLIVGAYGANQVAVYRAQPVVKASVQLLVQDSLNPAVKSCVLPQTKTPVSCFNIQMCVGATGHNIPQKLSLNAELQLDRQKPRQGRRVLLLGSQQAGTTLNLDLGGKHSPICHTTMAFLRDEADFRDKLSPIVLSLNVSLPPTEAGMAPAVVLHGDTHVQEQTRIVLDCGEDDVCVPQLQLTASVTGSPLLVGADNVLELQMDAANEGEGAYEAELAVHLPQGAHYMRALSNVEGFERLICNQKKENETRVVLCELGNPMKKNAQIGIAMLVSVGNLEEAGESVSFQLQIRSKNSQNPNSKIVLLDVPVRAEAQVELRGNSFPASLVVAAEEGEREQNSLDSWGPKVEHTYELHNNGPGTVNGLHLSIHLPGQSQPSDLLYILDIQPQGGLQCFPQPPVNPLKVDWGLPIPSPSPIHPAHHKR
# T1 sequence (P08514 891-1039 partner limits assumed): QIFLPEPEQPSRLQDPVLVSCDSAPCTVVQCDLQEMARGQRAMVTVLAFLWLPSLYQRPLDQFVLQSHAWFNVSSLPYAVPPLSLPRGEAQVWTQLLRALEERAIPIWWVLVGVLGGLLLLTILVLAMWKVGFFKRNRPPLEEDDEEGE
# T1 sequence (P05106 27-788): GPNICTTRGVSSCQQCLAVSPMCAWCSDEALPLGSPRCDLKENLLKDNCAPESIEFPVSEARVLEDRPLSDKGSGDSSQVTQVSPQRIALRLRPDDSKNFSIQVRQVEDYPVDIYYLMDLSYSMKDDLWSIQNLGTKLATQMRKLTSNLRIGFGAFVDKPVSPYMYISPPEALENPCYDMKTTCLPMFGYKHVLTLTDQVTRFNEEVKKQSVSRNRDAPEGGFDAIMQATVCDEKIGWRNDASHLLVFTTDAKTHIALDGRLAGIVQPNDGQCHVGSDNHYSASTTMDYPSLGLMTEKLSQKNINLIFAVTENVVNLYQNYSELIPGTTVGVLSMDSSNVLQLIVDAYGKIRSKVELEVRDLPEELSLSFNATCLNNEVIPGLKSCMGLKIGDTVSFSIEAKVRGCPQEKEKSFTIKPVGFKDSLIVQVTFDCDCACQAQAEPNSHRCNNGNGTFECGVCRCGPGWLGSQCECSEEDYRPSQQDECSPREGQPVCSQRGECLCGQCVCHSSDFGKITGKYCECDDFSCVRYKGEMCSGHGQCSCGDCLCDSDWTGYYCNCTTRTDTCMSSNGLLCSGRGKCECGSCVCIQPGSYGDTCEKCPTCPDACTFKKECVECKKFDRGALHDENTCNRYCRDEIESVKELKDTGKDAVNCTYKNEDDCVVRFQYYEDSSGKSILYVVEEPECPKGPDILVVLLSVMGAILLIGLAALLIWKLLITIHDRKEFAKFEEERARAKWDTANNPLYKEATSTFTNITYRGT
IC50 [1] [µM],SMILES,LD50 (in vivo) [mg/kg]
10,"N=C(N)c1ccc(C(=O)NCC(=O)N2CCC(OCC(=O)O)CC2)cc1 [Example 1, [[1-[N-(p-amidinobenzoyl)glycyl]-4-piperidinyl]oxy]acetic acid]",
140,"C[C@@H](NC(=O)c1ccc(C(=N)N)cc1)C(=O)N1CCC(OCC(=O)O)CC1 [Example 4, [[1-[N-(p-amidinobenzoyl)-D-alanyl]-4-piperidinyl]oxy]acetic acid]",
27,"CC(C)[C@H](NC(=O)c1ccc(C(=N)N)cc1)C(=O)N1CCC(OCC(=O)O)CC1 [Example 6, [[1-[N-(p-amidinobenzoyl)-L-valyl]-4-piperidinyl]oxy]-acetic acid]",

# Further lines, the compound ahead of its results:
SMILES,IC50 [1] [µM],LD50 (in vivo) [mg/kg]
"CC(C)C[C@H](NC(=O)c1ccc(C(=N)N)cc1)C(=O)N1CCC(OCC(=O)O)CC1 [Example 7, [[1-[N-(p-amidinobenzoyl)-L-leucyl]-4-piperidinyl]oxy]acetic acid]",33,
"C[C@H](NC(=O)c1ccc(C(=N)N)cc1)C(=O)N1CCC(OCC(=O)O)CC1 [Example 3, [[1-[N-(p-amidinobenzoyl)-L-alanyl]-4-piperidinyl]oxy]acetic acid]",1.7,250
"C[C@H](NC(=O)c1ccc(C(=N)N)cn1)C(=O)N1CCC(OCC(=O)O)CC1 [Example 5, [[1-[N-[(5-amidino-2-pyridyl)carbonyl]-L-alanyl]-4-piperidinyl]oxy]acetic acid]",1,500
"N=C(N)c1ccc(C(=O)N[C@@H](Cc2ccc(O)cc2)C(=O)N2CCC(OCC(=O)O)CC2)cc1 [Example 14, [[1-[N-(p-amidinobenzoyl)-L-tyrosil]-4-piperidinyl]oxy]acetic acid]",,250

# Reference: patent publication US5658928A, “Amino acid derivatives” (Hoffmann-La Roche Inc., priority 1991, dated 1997)
